Experimental data: patent publication US20040266723A1, “Antiviral agents for treatment of Flaviviridae infections” (priority 2000, published 2004)
pEC50, pIC50, pKi: −log10 of the molar value. Read-outs that look alike come from different tables or passages of the source.

Columns and labels:
[1] = Cytotoxicity in HepG2 cells; type: cell-based; conditions: human
Procedure: (§1) Cytotoxicity testing can be carried out according to standard methods. MDBK, PBM, HepG2, Huh7 and Vero cells were used. […]. After a three day-incubation, cell viability and mitochondrial activity are measured by adding the MTS-dye (Promega), followed by a 3 hours incubation. Afterwards the plates containing the dye are read at 490 nm. Each assay was done in triplicate. Such methodologies are well described and available from the manufacturer (Promega).

in vitro = type: cell-based
Description: as §1, with “After a three day-incubation, cell viability and mitochondrial activity are measured by adding the MTS-dye (Promega), followed by a 3 hours incubation.” left out

human IMPDH = assay: IMPDH inhibition (Ki); type: biochemical
BVDV [2] = assay: BVDV real time RT-PCR antiviral assay in MDBK cells; type: cell-based, Bovine viral diarrhea virus (BVDV), strain NADL; conditions: for max log reduction Viral Load / virus production / viral RNA versus negative control: MDBK cells; for Selectivity Index (24 hrs/24 hrs) CC50/EC90: MDBK CC50 24 hrs / antiviral EC90 24 hrs; for virus production / viral RNA versus negative control: MOI 0.02, 22 hours, real time RT-PCR
Procedure: As one illustration of this method, in the case of BVDV in MDBK cells, in a first step, viral RNA is isolated from 140 μL of the cell culture supernatant by means of a commercially available column (Viral RNA extraction kit, QiaGen, CA). The viral RNA is then eluted from the column to yield a total volume of 60 μL, and subsequently amplified with a quantitative RT-PCR protocol using a suitable primer for the BVDV NADL strain. A quenched fluorescent probe molecule is hybridized to the BVDV DNA, which then undergoes exonucleolytic degradation resulting in a detectable fluorescent signal. Therefore, the RT-PCR amplified DNA was detected in real time by monitoring the presence of fluorescence signals. The TaqMan probe molecule (5′ 6-fam-[…]-tamara 3′ [Sequence ID No. 7] and primers (sense: 5′-[…]-3′ [Sequence ID No. 8]; and antisense: 5′-[…]-3′ [Sequence ID No. 9]) were designed with the aid of the Primer Express software (PE-Applied Biosystems) to be complementary to the BVDV NADL NS5B region. A total of 10 μL of RNA was analyzed in a 50 μL RT-PCR mixture. Reagents and conditions used in quantitative PCR were purchased from PE-Applied Biosystems. The standard curve that was created using the undiluted inoculum virus ranged from 6000 plaque forming units (PFU) to 0.6 PFU per RT-PCR mixture.
Maldin-Darby bovine kidney (MDBK) cells were grown and maintained in a modified eagle medium (DMEM/F12; GibcoBRL), supplemented with 10% heat inactivated horse serum at 37° C. in a humidified, 5% CO2, incubator.
Bovine viral diarrhea virus (BVDV), strain NADL, causes a cytopathogenic effect (CPE) after infection of these cells.
Cells that were not treated with a test compound were considered a negative control, while ribavirin served as a positive control. Viral RNA was extracted and analyzed by real time RT-PCR.
Controls were Ribavirin and the polyoxymetalate HPA-023 in these experiments.

[3] = Cytotoxicity in MDBK cells; type: cell-based
Description: as §1, with “After a three day-incubation, cell viability and mitochondrial activity are measured by adding the MTS-dye (Promega), followed by a 3 hours incubation.” left out

[4] = Toxicity of C2-MAD in Balb/c mice (body weight); type: in vivo; conditions: Balb/c mice, 10, 30 and 60 mg/kg/day, ten day treatment, versus water
Description: The results of this screening are illustrated in FIG. 4.

[5] = Cytotoxicity in CEM cells; conditions: human, CEM cells
PBMC = assay: in vitro; type: cell-based; conditions: 7 days
Description: as §1, with “After a three day-incubation, cell viability and mitochondrial activity are measured by adding the MTS-dye (Promega), followed by a 3 hours incubation.” left out

MDBK cells = assay: Cytotoxicity in MDBK cells; type: cell-based
Description: as §1, with “After a three day-incubation, cell viability and mitochondrial activity are measured by adding the MTS-dye (Promega), followed by a 3 hours incubation.” left out

CEM = assay: Cytotoxicity in CEM cells; conditions: read-out: CEM 7 days CC50; 7 days
[6] = renal transplanted patients, oral; cited from earlier work
IMPDH = conditions: literature (WO 95/22538); cited from earlier work
BVDV [7] = assay: BVDV real time RT-PCR antiviral assay in MDBK cells; type: cell-based, Bovine viral diarrhea virus (BVDV), strain NADL; conditions: dose-response, 24 hours post-infection
[8] = Cytotoxicity in Vero cells; type: cell-based; conditions: African green monkey
Procedure: as §1

[9] = BVDV real time RT-PCR, after 22 hours, tested at 40 μM
[10] = Bovine viral diarrhea virus isolates and strains, MDBK, 22 h
[11] = Bovine viral diarrhea virus isolates and strains, MDBK, 24 h, read-out: Antiviral (24 hrs) EC90
[12] = 7 days, read-out: PBMC 7 days CC50
[13] = BVDV, 24 hrs, read-out: Antiviral (24 hrs) EC90
[14] = 24 hrs, read-out: MDBK (24 hrs) CC50
[15] = Table 2, 3 days, read-out: MDBK (3 Days) CC50

## N#Cc1cncc([C@@H]2O[C@H](CO)[C@@H](O)[C@H]2O)c1
other
  melting point: 169 to 171 °C

## NC(=O)c1cncc([C@H]2O[C@H](CO)[C@@H](O)[C@H]2O)c1
other
  melting point: 210 to 212 °C

## NC(=O)c1cccc(C2OC(CO)C(O)C2O)c1 (stereo not drawn) [Benzamide Riboside]
[1]; HepG2 cells
  CC50 at 3 days: 8 µM
In vitro
  CC50: < 17 µM
Human IMPDH; Table 2, read-out: IMPDH Ki
  pKi: 6.18
BVDV [2]; [9]
  max log reduction Viral Load: >2 (40 μM) log
BVDV [2]; [10]
  EC90: 3 µM
BVDV [2]; [11]
  EC90: 3 µM
BVDV [2]
  Selectivity Index (24 hrs/24 hrs) CC50/EC90: 4
[3]; bovine, MDBK cells
  CC50 at 24 h: 13 µM
[3]; bovine, MDBK cells, Table 1
  CC50 at 3 days: 4 µM
[3]; bovine, MDBK cells, Table 2
  CC50 at 3 days: 3 µM

## COc1c(C)c2c(c(O)c1CCOP(=O)(O)CP(=O)(O)OC[C@H]1O[C@@H](n3cnc4c(N)ncnc43)C(O)[C@H]1O)C(=O)OC2 (stereo partly drawn) [C2-MAD]
In vitro; [12]
  CC50 at 7 days: 45.9 µM
BVDV [2]; [9]
  max log reduction Viral Load: 1.9 (40 μM) log
[3]
  CC50 at 24 h: > 100 µM
[3]; Table 1
  CC50 at 3 days: 50 µM
[3]; Table 2
  CC50 at 3 days: 9 µM
[4]
  toxic effects: weight gain or loss (FIG. 4): does not contribute to significant weight gain or loss
[5]
  CC50 at 7 days: 17.7 µM

## COc1c(C)c2c(c(O)c1CCO)C(=O)OC2 [C2-MPAlcohol, 6-(2-hydroxyethyl)-7-hydroxy-5-methoxy-4-methylphthalan-1-one]
PBMC
  CC50: > 100 µM
BVDV [2]; [9]
  max log reduction Viral Load: 1.96 (40 μM) log
BVDV [2]; BVDV real time RT-PCR, after 22 hours, 1-log reduction in viral production, read-out: EC90
  EC90: 40 µM
BVDV [2]; [13]
  EC90: 40 µM
MDBK cells; [14]
  CC50: > 100 µM
MDBK cells; Table 1, 3 days, read-out: MDBK 3 days CC50
  CC50: 7 µM
MDBK cells; [15]
  CC50: 7 µM
CEM
  CC50: 91 µM

## COc1c(C)c2c(c(O)c1CC=O)C(=O)OC2 [C2-MPAld]
BVDV [2]; [13]
  EC90: > 100 µM
BVDV [2]
  virus production / viral RNA versus negative control: non-active
MDBK cells
  CC50: > 100 µM

## COc1c(C)c2c(c(O)c1C/C=C(\C)C=O)C(=O)OC2 [C4-MPAld]
BVDV [2]; [13]
  EC90: > 100 µM
BVDV [2]
  virus production / viral RNA versus negative control: non-active
MDBK cells
  CC50: > 100 µM

## COc1c(C)c2c(c(O)c1C/C=C(\C)CCCOP(=O)(O)CP(=O)(O)OC[C@H]1O[C@@H](n3cnc4c(N)ncnc43)[C@H](O)[C@@H]1O)C(=O)OC2 [C6-MAD]
Human IMPDH; Table 2, read-out: IMPDH Ki
  pKi: 6.52
BVDV [2]; [13]
  EC90: > 100 µM
BVDV [2]
  virus production / viral RNA versus negative control: non-active
MDBK cells
  CC50: > 100 µM

## NC(=O)c1cccc([C@@H]2O[C@H](COP(=O)(O)CP(=O)(O)OCC3OC(n4cnc5c(N)ncnc54)C(F)C3O)[C@@H](O)[C@H]2O)c1 (stereo partly drawn) [F-ara-CH2-BAD]
Human IMPDH; Table 2, read-out: IMPDH Ki
  pKi: 3.76
BVDV [2]; [13]
  EC90: > 100 µM
BVDV [2]
  virus production / viral RNA versus negative control: non-active
MDBK cells; [14]
  CC50: > 100 µM
MDBK cells; [15]
  CC50: > 100 µM

## NC(=O)c1ncn([C@H]2O[C@@H](CO)[C@H](O)[C@@H]2O)n1 [L-Ribavirin]
BVDV [2]; [13]
  EC90: > 100 µM
MDBK cells; [14]
  CC50: > 100 µM
MDBK cells; [15]
  CC50: > 100 µM

## COc1c(C)c2c(c(O)c1C/C=C(\C)CCC(=O)OCCN1CCOCC1)C(=O)OC2 [MMF, mycophenolate mofetil]
[6]
  MPA Tmax: 48 min

## COC(=O)CC/C(C)=C/Cc1c(O)c2c(c(C)c1OC)COC2=O [MPA-O-Me]
Human IMPDH; Table 2, read-out: IMPDH Ki
  pKi: 6.30
BVDV [2]; BVDV real time RT-PCR, after 22 hours, tested at 100 μM
  max log reduction Viral Load: 3.32 (100 μM) log
BVDV [2]; [13]
  EC90: < 1 µM
MDBK cells; [14]
  CC50: > 100 µM
MDBK cells; [15]
  CC50: 0.4 µM

## NC(=O)c1ncn([C@@H]2O[C@H](CO)[C@@H](O)[C@H]2O)c1O [Mizoribine]
Human IMPDH; human IMPDH, read-out: Ki
  pKi: 8.40
BVDV [2]; Bovine viral diarrhea virus isolates and strains, MDBK
  EC90: > 100 µM
BVDV [2]; [11]
  EC90: > 100 µM
BVDV [2]
  Selectivity Index (24 hrs/24 hrs) CC50/EC90: 1
  virus production / viral RNA versus negative control: non-active
[3]
  CC50 at 24 h: > 100 µM
[3]; Table 2
  CC50 at 3 days: > 100 µM

## COc1c(C)c2c(c(O)c1C/C=C(\C)CCC(=O)O)C(=O)OC2 [Mycophenolic Acid (MPA), Mycophenolic Acid]
In vitro
  CC50 at 7 days: 75.4 µM
BVDV [2]; [9]
  max log reduction Viral Load: >2 (40 μM) log
BVDV [2]; [10]
  EC90: 1 µM
BVDV [2]; [11]
  EC90: < 1 µM
BVDV [2]
  virus production / viral RNA versus negative control: almost complete absence of viral RNA
[3]; bovine, MDBK cells
  CC50 at 24 h: > 100 µM
[3]; bovine, MDBK cells, Table 1
  CC50 at 3 days: 2 µM
[3]; bovine, MDBK cells, Table 2
  CC50 at 3 days: 2 µM
[5]
  CC50 at 7 days: 0.05 µM
IMPDH
  pIC50: […]

## NC(=O)c1ncn([C@@H]2O[C@H](CO)[C@@H](O)[C@H]2O)n1 [Ribavirin]
[1]
  CC50 at 3 days: 80 µM
BVDV [7]
  intracellular viral RNA reduction, relative effectiveness (FIG. 9): more effective than C2-MAD
In vitro; [12]
  CC50 at 7 days: > 100 µM
Human IMPDH; Table 2, read-out: IMPDH Ki
  pKi: 6.70
BVDV [2]; [9]
  max log reduction Viral Load: >2 (40 μM) log
BVDV [2]; [10]
  pEC50: 6.15
  EC90: 5 µM
BVDV [2]; [11]
  EC90: 2 µM
BVDV [2]
  Selectivity Index (24 hrs/24 hrs) CC50/EC90: 5
  virus production / viral RNA versus negative control: almost complete absence of viral RNA
[8]
  CC50 at 3 days: > 100 µM
[3]
  CC50 at 24 h: > 100 µM
[3]; Table 1
  CC50 at 3 days: 4 µM
[3]; Table 2
  CC50 at 3 days: 5 µM
[5]
  CC50 at 7 days: 75 µM

## NC(=O)c1csc([C@@H]2O[C@H](CO)[C@@H](O)[C@H]2O)n1 [Tiazofurin]
[1]
  CC50 at 3 days: > 100 µM
In vitro; [12]
  CC50 at 7 days: 79.5 µM
Human IMPDH; Table 2, read-out: IMPDH Ki
  pKi: 6.96
BVDV [2]; [9]
  max log reduction Viral Load: >2 (40 μM) log
BVDV [2]; [10]
  EC90: 30 µM
BVDV [2]; [11]
  EC90: 7 µM
BVDV [2]
  Selectivity Index (24 hrs/24 hrs) CC50/EC90: 14
  virus production / viral RNA versus negative control: almost complete absence of viral RNA
[3]
  CC50 at 24 h: > 100 µM
[3]; Table 1
  CC50 at 3 days: 25 µM
[3]; Table 2
  CC50 at 3 days: 25 µM
[5]
  CC50 at 7 days: 73.4 µM

## Nc1nc2c(ncn2[C@@H]2O[C@H](CO)[C@@H](O)[C@H]2O)c(=O)[nH]1 [guanosine]
BVDV [2]
  virus production / viral RNA versus negative control: non-active

## NC(=O)c1csc(C2OC(COP(=O)(O)CP(=O)(O)OCC3OC(n4cnc5c(N)ncnc54)C(O)C3O)C(O)C2O)n1 (stereo not drawn) [β-CH2-TAD]
In vitro
  CC50 at 7 days: > 100 µM
Human IMPDH; Table 2, read-out: IMPDH Ki
  pKi: 6.96
BVDV [2]; [9]
  max log reduction Viral Load: 0.94 (40 μM) log
BVDV [2]; [11]
  EC90: > 100 µM
BVDV [2]
  Selectivity Index (24 hrs/24 hrs) CC50/EC90: 1
[3]; bovine, MDBK cells
  CC50 at 24 h: > 100 µM
[3]; bovine, MDBK cells, Table 1
  CC50 at 3 days: 70 µM
[3]; bovine, MDBK cells, Table 2
  CC50 at 3 days: 70 µM
[5]
  CC50 at 7 days: 47.8 µM
